Measurements as given in patent US11299472B2, “Fumarate salt of (R)-3-(1-(2,3-dichloro-4-(pyrazin-2-yl)phenyl)-2,2,2- trifluoroethyl)-1-methyl-1-(1-methylpiperidin-4-yl) urea, methods of preparation, and uses thereof” (Helsinn Healthcare SA, priority 2017, dated 2022).
Blank lines part the entries; values can stand above or below the compound they belong to. Ends that are not written are not given here.

Key:
[1] = system: Snord116+/− (Het) mice and wild-type (WT) littermates; experiment: Food intake after acute administration in Prader-Willi mouse model; format: in vivo; conditions: cabergoline 0.5 mg/kg single i.p., fasted 16 hours
Description: The effect of HM04 fumarate salt on food intake behavior and glucose tolerance was investigated in the Snord116+/−(Het) mouse genetic model of Prader-Willi syndrome (Het mouse) compared to wild-type (WT) littermates. Since D2R agonists suppress food intake, the FDA approved D2R agonist cabergoline was used as an experimental control. Phenotypic characteristics of this PWS mouse model include hyperphagia, postnatal growth retardation, high ghrelin, and low growth hormone. Ding F., et al. SnoRNA Snord116 (Pwcr1/MBII-85) deletion causes growth deficiency and hyperphagia in mice. PloS one. 2008; 3(3):e1709. These PWS mice eat more frequently than WT littermates, particularly during the light cycle and are more motivated to work for food (more level presses) (data not shown).
Acute administration: Mice (3-, 7-, and 12-month-old) were fasted for 16 hours and then administered a single intraperitoneal injection of vehicle or vehicle containing HM04, cabergoline, or HM04 and cabergoline according to Table 8, below.
HM04 was dissolved in water for injection and cabergoline was dissolved in DMSO to provide a 5% DMSO/water solution for injection. Mice were then given free access to food, and cumulative food intake was measured at 1, 2, 4, 8, 12, and 24 hours post-dosing. […] Data was analyzed for significance using 2-way ANOVA, Bonferroni post hoc test (Graphpad Prism, Prism 5.0, San Diego, Calif.).

[2] = GVS analysis (hygroscopicity); format: physicochemical
Experimental: For the GVS analysis, 15-20 mg of sample was loaded into an IgaSorp vapour sorption balance (Hiden Analytical Instruments). The sample was then dried by maintaining a 0% humidity environment until no further weight change was recorded. The sample was then subjected to a ramping profile from 0 to 90% RH at 10% RH increments, maintaining the sample at each step until equilibration had been attained (99% step completion). Upon reaching equilibrium, the % RH within the apparatus was ramped to the next step and the equilibration procedure repeated. After completion of the sorption cycle, the sample was dried using the same procedure. The weight change during the sorption/desorption cycles were then monitored, allowing for the hygroscopic nature of the sample to be determined.

[3] = Estimated aqueous solubility; format: physicochemical; conditions: aqueous (water)
[4] = Rat pharmacokinetic study, HM04 free base vs HM04 fumarate salt (Example 9); format: in vivo, male Sprague Dawley rats; conditions: 3 mg/kg oral
Experimental: The pharmacokinetics of HM04 in plasma of male Sprague Dawley rats dosed with a single oral administration of 3 mg/kg HM04 (based on the weight of the free base) formulated in a solution of 10% DMAC, 6% Solutol, and 84% PBS using either the HM04 free base or HM04 fumarate salt were compared. Blood samples were withdrawn at set time intervals and plasma concentration of HM04 was measured by LC-MS/MS. A comparison of the plasma concentration of HM04 (ng/mL) over time in rats dosed orally with HM04 free base and HM04 fumarate salt is provided in FIG. 17.

[5] = Dog pharmacokinetic study, HM04 free base vs HM04 fumarate salt (Example 9); format: in vivo, male Beagle dogs
Experimental: The pharmacokinetics of HM04 in plasma of male Beagle dogs dosed with a single oral administration of 2 mg/kg HM04 formulated in a solution of 10% DMAC, 6% Solutol, and 84% PBS using either the HM04 free base or HM04 fumarate salt were compared. A comparison of the plasma concentration of HM04 (ng/mL) over time in dogs dosed orally with HM04 free base and HM04 fumarate salt is provided in FIG. 18. Bioavailability was calculated from a dose normalized ratio of the oral mean AUC to the intravenous mean AUC (AUCpo/AUCiv×Doseiv/Dosepo).

[6] = Rat pharmacokinetic study, HM04 free base vs HM04 fumarate salt (Example 9); format: in vivo, male Sprague Dawley rats
[7] = Dog pharmacokinetic study, HM04 free base vs HM04 fumarate salt (Example 9); format: in vivo, male Beagle dogs; remark: listed apart in the source
[8] = system: ghrelin-induced increase of GH; experiment: Ghrelin-induced increase of growth hormone in rats; format: in vivo; conditions: after 15 μg/kg ghrelin i.v.
Experimental: Rats were divided into four groups: 1) 1 ml/kg saline plus 10 ml/kg 0.5% CMC p.o. (n=6); 2) 15 μg/kg ghrelin i.v. plus 10 ml/kg 0.5% CMC p.o. (n=6); 3) 30 mg/kg HM04 fumarate salt p.o. 2 hours before 15 μg/kg ghrelin i.v. (n=6); 4) 10 mg/kg ghrelin antagonist R011 i.p. 30 minutes before 15 μg/kg ghrelin i.v. (n=6). Blood was collected as 100 μl samples at time 0 and at 15 minutes after ghrelin injection. Rats were anesthetized with 64.8 mg/kg sodium pentobarbital. A catheter filled with heparinized saline solution was inserted in the left femoral artery for blood collection and fitted with an extension tube, 1-mL sampling syringe, and a 3-way cock to allow excess blood to return.
Plasma levels of growth hormone (GH) were determined using Rat GH ELISA (Millipore, Catalog No. EZRMGH-45K). Measurements were performed in duplicate. […] One-way and two-way ANOVA test was used to compare differences between groups. All values are presented as mean±SEM. One-way ANOVA was performed followed by Turkey's post hoc test where significance was indicated by p values<0.05 or p values<0.01.

[9] = male, Sprague Dawley, plasma, mean ± S.D., n=3
[10] = male, Beagle, plasma, 2 mg/kg oral, mean ± S.D., n=3

Compound: C=CCN1C[C@H](C(=O)N(CCCN(C)C)C(=O)NCC)C[C@@H]2c3cccc4[nH]cc(c34)C[C@H]21 [Cabergoline, cabergoline, reference compound]
cumulative food intake ([1]; 7-month-old Het mice): inhibited food intake
cumulative food intake ([1]; 7-month-old WT mice): inhibited food intake

hygroscopicity (GVS) [2]: slightly hygroscopic
weight gain (GVS) ([2]; up to 70% relative humidity (RH)): approximately 1.5%
weight gain (GVS) ([2]; up to 80% RH): approximately 2%
solubility [3]: < 2000 µg/mL
HM04 plasma concentration ([4]; 0.50 hours, mean ± S.D., n=3): 39.0 ± 5.2 ng/mL
HM04 plasma concentration ([4]; 1 hour, mean ± S.D., n=3): 44.4 ± 6.0 ng/mL
HM04 plasma concentration ([4]; 2 hours, mean ± S.D., n=3): 35.7 ± 11.3 ng/mL
HM04 plasma concentration ([4]; 8 hours, mean ± S.D., n=3): 7.9 ± 5.8 ng/mL
AUC(0-t) [4, 9]: 220 ± 57.2 ng·h/mL
Tmax [4, 9]: 1 h
concentration at 24 hours ([4]; male, Sprague Dawley, plasma, po, 3 mg/kg, 24 hours, N = 1 (two of three animals below level of quantification)): 2.4 ng/mL
HM04 plasma concentration ([5]; 2 mg/kg oral, 0.25 hours, mean ± S.D., n=3): 8.94 ± 5.56 ng/mL
HM04 plasma concentration ([5]; 2 mg/kg oral, 0.50 hours, mean ± S.D., n=3): 49.40 ± 7.72 ng/mL
HM04 plasma concentration ([5]; 2 mg/kg oral, 2 hours, mean ± S.D., n=3): 74.05 ± 3.77 ng/mL
bioavailability ([5]; male, Beagle, plasma, 2 mg/kg oral vs 1 mg/kg intravenous, dose normalized AUC ratio): 59.4 ± 9.11%
AUC(0-t) [5, 10]: 929 ± 142 ng·h/mL
Cmax [5, 10]: 74 ± 3.77 ng/mL
Tmax [5, 10]: 2 h
HM04 plasma concentration ([6]; 3 mg/kg oral, 0.25 hours, mean ± S.D., n=3): 24.2 ± 6.6 ng/mL
HM04 plasma concentration ([6]; 3 mg/kg oral, 4 hours, mean ± S.D., n=3): 25.0 ± 13.0 ng/mL
AUC ([6]; male, Sprague Dawley, plasma, 3 mg/kg intravenous, three rats, read-out: mean AUC following intravenous administration): 990 ± 24.6 ng·h/mL
bioavailability ([6]; male, Sprague Dawley, plasma, 3 mg/kg oral vs 3 mg/kg intravenous mean AUC): 22.2 ± 5.8%
Cmax ([6]; male, Sprague Dawley, plasma, 3 mg/kg oral, mean ± S.D., n=3): 44.4 ± 6 ng/mL
HM04 plasma concentration ([7]; 2 mg/kg oral, 1 hour, mean ± S.D., n=3): 66.33 ± 4.25 ng/mL
HM04 plasma concentration ([7]; 2 mg/kg oral, 4 hours, mean ± S.D., n=3): 67.34 ± 6.27 ng/mL
AUC ([7]; male, Beagle, plasma, 1 mg/kg intravenous, three dogs, read-out: mean AUC following intravenous administration): 782 ± 364 ng·h/mL
concentration at 8 h ([7]; male, Beagle, plasma, po, 2 mg/kg, 2 mg/kg oral, 8 hours, mean ± S.D., n=3): 49.2 ± 10.2 ng/mL
concentration at 24 h ([7]; male, Beagle, plasma, po, 2 mg/kg, 2 mg/kg oral, 24 hours, mean ± S.D., n=3): 6.61 ± 4.38 ng/mL
Compound: CN1CCC(N(C)C(=O)N[C@H](c2ccc(-c3cnccn3)c(Cl)c2Cl)C(F)(F)F)CC1 [HM04 free base, (R)-3-(1-(2,3-dichloro-4-(pyrazin-2-yl)phenyl)-2,2,2-trifluoroethyl)-1-methyl-1-(1-methylpiperidin-4-yl) Urea]

Compound: ghrelin: growth hormone-releasing peptide, injected i.v. to induce GH increase (GSSFLSPEHQRVQQRKESKKPPAKLQPR; ends and bridges not checked; UniProt Q9UBU3 24-51, looked up) [reference compound]
mean plasma GH concentration [8]: 90 to 120 ng/mL
